pEC50, pIC50: −log10 of the molar value.
What was measured:
[1] = Inhibition of Streptococcus pneumoniae FabK using t-o-NAC as substrate in presence of NADPH by […]
KB 3-1 = test: Cytotoxicity against human KB 3-1 cells assessed as cell growth inhibition; assay type: functional, cell-based
L929 = test: Cytotoxicity against mouse L929 cells assessed as cell growth inhibition; assay type: functional, cell-based
[2] = Inhibition of 17beta-HSD1 (unknown origin); parameters: species or system Homo sapiens
[3] = Inhibition of Escherichia coli FabK using t-o-NAC as substrate in presence of NADPH by […]
[4] = Inhibition of Staphylococcus aureus FabK using t-o-NAC as substrate in presence of NADPH by […]
[5] = Inhibition of Saccharomyces cerevisiae alpha-glucosidase using pNPG as substrate preincubated for 10 mins followed by substrate addition measured after 15 mins by absorbance based microplate reader analysis
[6] = Inhibition of TNF-alpha production in rat RBL-2H3 cells; assay type: functional, cell-based
HepG2 = test: Antiproliferative activity against human HepG2 cells assessed as cell growth inhibition measured after 48 hrs; assay type: functional, cell-based; conditions: HepG2, 48 h
[7] = Antioxidant activity assessed as DPPH radical scavenging activity by absorbance based analysis; assay type: functional
[8] = Antioxidant activity assessed as DPPH radical scavenging activity measured after 30 mins under dark condition by microplate reader analysis; assay type: functional

SMILES: O=C1C(O)=C(c2ccc(O)c(O)c2)C(=O)C(O)=C1c1ccc(O)cc1
- pIC50 [1]: 5.80
- pIC50 (KB 3-1): 5.15
- pIC50 (L929): 4.77

SMILES: O=C1C(O)=C(c2ccc(O)cc2)C(=O)C(O)=C1c1ccc(O)cc1
- pEC50 [2]: < 4.00
- pIC50 [1]: 6.62
- pIC50 [3]: < 3.70
- pIC50 [4]: < 3.70

SMILES: O=C(Oc1c(O)c(-c2ccc(O)cc2)c(OC(=O)c2ccccc2)c(O)c1-c1ccc(O)cc1)c1ccccc1
- pIC50 [5]: < 4.30

SMILES: O=C(Oc1c(O)c(-c2ccc(O)cc2)c(OC(=O)c2ccc(O)cc2)c(O)c1-c1ccc(O)cc1)c1ccc(O)cc1
- pIC50 [6]: 8.46

SMILES: CC(=O)Oc1c(OC(=O)c2ccccc2)c(-c2ccc(O)cc2)c(O)c(O)c1-c1ccc(O)cc1
- pIC50 [5]: 6.00

SMILES: O=C(Oc1c(OC(=O)c2ccccc2)c(-c2ccc(O)cc2)c(OC(=O)c2ccccc2)c(O)c1-c1ccc(O)cc1)c1ccccc1
- pIC50 [5]: 5.34

SMILES: CC(=O)Oc1c(OC(=O)c2ccccc2)c(-c2ccc(O)cc2)c(OC(=O)c2ccccc2)c(OC(=O)c2ccccc2)c1-c1ccc(O)cc1
- pIC50 [5]: 5.53

SMILES: O=C(Cc1ccccc1)Oc1c(OC(=O)c2ccccc2)c(-c2ccc(O)cc2)c(O)c(O)c1-c1ccc(O)cc1
- pIC50 (HepG2): 5.15

SMILES: O=C(Cc1ccccc1)Oc1c(O)c(-c2ccc(O)cc2)c(OC(=O)c2ccc(O)cc2)c(O)c1-c1ccc(O)cc1
- pEC50 [7]: 7.55

SMILES: COC1=C(c2ccc(O)cc2)C(=O)C(OC(=O)c2ccccc2)=C(c2ccc(O)cc2)C1=O
- pIC50 [5]: 4.73
- pEC50 [8]: 3.82

SMILES: O=C1O[C@H]([C@@H](O)CO)C(O)=C1O [ASCORBIC ACID]
- pEC50 [7]: 6.57

SMILES: O=C(Cc1ccccc1)Oc1c(OC(=O)Cc2ccccc2)c(-c2ccc(O)cc2)c(O)c(O)c1-c1ccc(O)cc1 [VIALININ A]
- pIC50 [6]: 10.70
- pIC50 (HepG2): 5.15

Source: ChEMBL document CHEMBL5104146, “Anti-inflammatory and anticancer p-terphenyl derivatives from fungi of the genus Thelephora” (Bioorg Med Chem, 2022)
